Assay results published in patent publication US9868698B2, “(2S,4R)-5-(5′-chloro-2′-fluorobiphenyl-4-yl)-4-(ethoxyoxalylamino)-2-hydroxymethyl-2-methylpentanoic acid” (THERAVANCE BIOPHARMA R&D IP, LLC, priority 2015, dated 2018).

What was measured:
Rat NEP = molecular target: T1, Rat NEP (Rattus norvegicus, UniProt P07861); experiment: In vitro enzyme inhibition assay, rat NEP (Assay 1); assay type: biochemical; details: NEP from rat kidneys; read-out: rat pKi (converted)
T1 construct: leaving a viscous oily precipitate containing the enriched membrane fraction; from tissue; host or cells: kidneys of adult Sprague Dawley rats (Triton X-114 enriched membrane fraction)
T1 sequence (P07861 1-750): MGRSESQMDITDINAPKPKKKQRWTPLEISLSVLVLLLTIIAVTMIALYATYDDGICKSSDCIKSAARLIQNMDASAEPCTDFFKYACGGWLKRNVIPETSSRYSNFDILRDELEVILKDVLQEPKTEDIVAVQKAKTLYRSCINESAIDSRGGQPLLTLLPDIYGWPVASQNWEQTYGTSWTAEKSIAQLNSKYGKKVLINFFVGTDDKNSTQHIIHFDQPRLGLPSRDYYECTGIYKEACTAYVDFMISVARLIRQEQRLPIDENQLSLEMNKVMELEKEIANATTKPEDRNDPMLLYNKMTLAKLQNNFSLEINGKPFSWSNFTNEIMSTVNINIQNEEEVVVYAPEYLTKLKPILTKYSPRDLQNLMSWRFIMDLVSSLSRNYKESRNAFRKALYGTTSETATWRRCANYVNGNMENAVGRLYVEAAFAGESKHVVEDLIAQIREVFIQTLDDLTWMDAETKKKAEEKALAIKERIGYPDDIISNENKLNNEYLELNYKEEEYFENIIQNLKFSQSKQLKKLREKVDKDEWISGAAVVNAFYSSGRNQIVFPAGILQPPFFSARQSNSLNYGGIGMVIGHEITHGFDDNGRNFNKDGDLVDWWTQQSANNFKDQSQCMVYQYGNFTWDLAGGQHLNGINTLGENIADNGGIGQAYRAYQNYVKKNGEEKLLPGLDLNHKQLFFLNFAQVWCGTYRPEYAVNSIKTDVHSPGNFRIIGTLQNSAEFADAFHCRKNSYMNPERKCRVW
Experimental: (§1) The inhibitory activities at human and rat neprilysin (EC 3.4.24.11; NEP) were determined using in vitro assays as described below.
Rat NEP was prepared from the kidneys of adult Sprague Dawley rats. Whole kidneys were washed in cold phosphate buffered saline (PBS) and brought up in ice-cold lysis buffer (1% Triton X-114, 150 mM NaCl, 50 mM tris(hydroxymethyl) aminomethane (Tris) pH 7.5; Bordier (1981) J. Biol. Chem. 256: 1604-1607) in a ratio of 5 mL of buffer for every gram of kidney. Samples were homogenized on ice using a polytron hand held tissue grinder. Homogenates were centrifuged at 1000×g in a swinging bucket rotor for 5 minutes at 3° C. The pellet was resuspended in 20 mL of ice cold lysis buffer and incubated on ice for 30 minutes. Samples (15-20 mL) were then layered onto 25 mL of ice-cold cushion buffer (6% w/v sucrose, 50 mM pH 7.5 Tris, 150 mM NaCl, 0.06%, Triton X-114), heated to 37° C. for 3-5 minutes and centrifuged at 1000×g in a swinging bucket rotor at room temperature for 3 minutes. The two upper layers were aspirated off, leaving a viscous oily precipitate containing the enriched membrane fraction. Glycerol was added to a concentration of 50% and samples were stored at −20° C. Protein concentrations were quantitated using a BCA detection system with bovine serum albumin (BSA) as a standard.
(§2) The assays were performed in 384-well white opaque plates at 37° C. using the fluorogenic peptide substrate at a concentration of 10 μM in Assay Buffer (50 mM HEPES, pH 7.5, 100 mM NaCl, 0.01% polyethylene glycol sorbitan monolaurate (Tween-20), 10 μM ZnSO4).
(§3) Test compounds were assayed over the range of concentrations from 10 μM to 20 pM. Test compounds were added to the enzyme and incubated for 30 minute at 37° C. prior to initiating the reaction by the addition of substrate. Reactions were terminated after 20 minutes of incubation at 37° C. by the addition of glacial acetic acid to a final concentration of 3.6% (v/v).
(§4) Plates were read on a fluorometer with excitation and emission wavelengths set to 320 nm and 405 nm, respectively. Inhibition constants were obtained by nonlinear regression of the data using the equation (GraphPad Software, Inc., San Diego, Calif.): v=v0/[1+(I/K′)] where v is the reaction rate, v0 is the uninhibited reaction rate, I is the inhibitor concentration and K′ is the apparent inhibition constant.

[1] = IV/PO pharmacokinetic study in dogs (Assay 3); assay type: in vivo; details: male, beagle, plasma, dog, read-out: AUClast Mean
Experimental: (§5) Each rat or dog pharmacokinetic study began with formulation of the test compound. Appropriate masses of each test compound were added into a volume of vehicle (e.g. 5% sodium bicarbonate, 5% dextrose in water) such that the final concentration of each compound was appropriate to be dosed at 2 mL/kg. Although a homogenous suspension were acceptable for oral dosing, intravenous dosing solutions were sterile-filtered (0.2 μm) prior to dosing to ensure no particulates were administered.
In the dog study, male beagle dogs (3 per route) housed at Agilux Laboratories (Worcester, Mass.) and weighing between 7-12 kg received either a single oral gavage or a single intravenous (via indwelling catheter) dose of the dosing solution. The final dose was typically 0.1-2 mg/kg. Serial blood samples were harvested via direct venipuncture at 3 minutes, 15 minutes, 30 minutes, 1 hour, 2 hours, 4 hours, 6 hours, 8 hours, 12 hours, and 24 hours post-dose. All samples were collected manually into microtainer tubes containing sodium fluoride, potassium oxalate and paraoxon, and were processed to plasma by refrigerated centrifugation.
(§6) Plasma samples were extracted with 3 volumes of MeCN containing a suitable internal standard. Extracts were reconstituted into 3 volumes of water containing 1% formic acid, and analyzed via HPLC-coupled MS/MS. Plasma concentration-time data were analyzed using the Phoenix software (Pharsight Corp., St. Louis, Mo.) to calculate pharmacokinetic parameters.

[2] = IV/PO pharmacokinetic study in rats (Assay 3); assay type: in vivo; details: male, Sprague-Dawley, plasma; rat, IV; analyte = compound dosed (active metabolite); read-out: AUClast Mean
Experimental: as §5
In the rat study, pre-cannulated male Sprague-Dawley rats (3 per route) between 8 and 10 weeks of age were obtained from Harlan Laboratories (Indianapolis, Ind.). Rats received either a single oral gavage or a single intravenous (via lateral tail vein) dose of the dosing solution. The final dose was typically 0.5-3 mg/kg. Serial blood samples were harvested via the cannula implanted in the jugular vein at 3 minutes, 15 minutes, 30 minutes, 1 hour, 2 hours, 4 hours, 6 hours, and 24 hours post-dose. Sampling was performed either manually or using automated blood samplers. Samples were collected into microtainer tubes containing sodium fluoride, potassium oxalate and paraoxon, and were processed to plasma by refrigerated centrifugation.
as §6

NEP [3] = molecular target: T2, NEP (Homo sapiens, UniProt P08473); details: reported in U.S. Patent Application Publication No. 2013/0109639; cited from earlier work
Target sequence in this assay (P08473 whole entry): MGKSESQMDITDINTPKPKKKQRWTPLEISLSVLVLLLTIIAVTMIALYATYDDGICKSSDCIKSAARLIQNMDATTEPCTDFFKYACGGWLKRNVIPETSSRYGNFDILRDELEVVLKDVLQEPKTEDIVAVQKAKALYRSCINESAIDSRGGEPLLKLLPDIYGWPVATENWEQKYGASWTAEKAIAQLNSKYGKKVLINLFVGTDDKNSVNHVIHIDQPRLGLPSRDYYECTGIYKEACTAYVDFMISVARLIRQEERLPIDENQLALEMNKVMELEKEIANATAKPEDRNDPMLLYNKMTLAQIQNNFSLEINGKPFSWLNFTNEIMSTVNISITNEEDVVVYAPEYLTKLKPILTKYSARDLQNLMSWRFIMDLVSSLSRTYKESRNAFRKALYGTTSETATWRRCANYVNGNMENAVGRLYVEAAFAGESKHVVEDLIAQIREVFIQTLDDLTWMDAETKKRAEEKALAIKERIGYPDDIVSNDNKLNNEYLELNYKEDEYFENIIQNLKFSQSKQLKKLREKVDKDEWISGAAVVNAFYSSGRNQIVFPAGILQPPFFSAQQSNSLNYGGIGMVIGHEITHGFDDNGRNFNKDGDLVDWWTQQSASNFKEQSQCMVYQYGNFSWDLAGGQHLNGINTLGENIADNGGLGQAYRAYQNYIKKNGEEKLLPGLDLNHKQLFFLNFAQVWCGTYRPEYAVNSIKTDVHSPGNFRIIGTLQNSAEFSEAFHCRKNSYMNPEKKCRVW

NEP [4] = molecular target: T2, NEP; experiment: In vitro enzyme inhibition assay, human NEP (Assay 1); assay type: biochemical; set-up: purchased R&D Systems 1182-ZN; details: read-out: human pKi (converted)
Experimental: as §1
Target sequence in this assay (P08473 52-750 limits assumed): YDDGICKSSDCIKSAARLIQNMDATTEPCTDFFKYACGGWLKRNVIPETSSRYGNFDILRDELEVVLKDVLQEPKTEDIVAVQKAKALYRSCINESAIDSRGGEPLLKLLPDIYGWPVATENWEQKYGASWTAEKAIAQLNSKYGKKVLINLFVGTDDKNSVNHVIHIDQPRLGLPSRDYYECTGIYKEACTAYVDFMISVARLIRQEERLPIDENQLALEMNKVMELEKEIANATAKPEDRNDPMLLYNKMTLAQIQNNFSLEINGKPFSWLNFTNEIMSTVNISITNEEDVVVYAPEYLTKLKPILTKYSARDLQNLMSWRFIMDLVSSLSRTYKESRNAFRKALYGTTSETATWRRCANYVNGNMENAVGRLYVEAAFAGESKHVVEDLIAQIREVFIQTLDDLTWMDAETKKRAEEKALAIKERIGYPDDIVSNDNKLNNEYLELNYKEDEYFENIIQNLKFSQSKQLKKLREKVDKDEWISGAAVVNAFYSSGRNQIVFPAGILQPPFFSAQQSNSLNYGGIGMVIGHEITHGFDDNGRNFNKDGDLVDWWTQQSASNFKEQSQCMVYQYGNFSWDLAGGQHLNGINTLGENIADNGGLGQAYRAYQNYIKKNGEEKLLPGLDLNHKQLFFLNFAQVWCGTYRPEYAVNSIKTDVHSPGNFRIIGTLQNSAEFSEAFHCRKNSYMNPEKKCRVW
Recombinant human NEP was obtained commercially (R&D Systems, Minneapolis, Minn., catalog number 1182-ZN). The fluorogenic peptide substrate Mca-D-Arg-Arg-Leu-Dap-(Dnp)-OH (Medeiros et al. (1997) Braz. J. Med. Biol. Res. 30:1157-62; Anaspec, San Jose, Calif.) was used.
as §2, §3, §4

[5] = Renal excretion in male beagle dogs (Assay 4); assay type: in vivo; details: dog, IV 1.0 mg/kg
Experimental: An important factor for insuring appropriate long term drug dosing and correct steady-state drug concentrations in patients is drug clearance. In general, decreased drug clearance results in higher drug concentrations and greater drug effects.
Male beagle dogs (N=3), having body weights of 9.58-10.42 kg, received an IV dose of 1.0 mg/kg of Compound 1. Compound 1 was formulated in 5% NaHCO3 in D5W. The dogs were fasted overnight and pretreated with pentagastrin (60 μg/mL, 0.1 mL/kg, IM) approximately 30 minutes prior to dose administration to stimulate gastric secretion. Food was returned approximately 4 hours postdose. Urine samples were collected surrounded by cold ice packs during the collection period. After 24 hours, the sample weight was recorded, the sample was thoroughly mixed, and aliquots were obtained and frozen (−80° C.) prior to bioanalysis.
Dog urine concentrations of Compound 1 were determined by LC/MS/MS. Urine study samples (diluted in plasma) were vortexed and 50 μL was placed in a 96-well plate. The samples were extracted with acetonitrile with internal standard chrysin. The extract was centrifuged and supernatant was transferred to a new 96-well plate and diluted 1 part sampe in 4 parts water with 0.2% formic acid. Samples (12 μL) were injected on a Waters Acquity UPLC BEH C18 (50×2.1 mm, 1.7 μm) column with a flow rate of 0.9 mL/min. […]

[6] = Exposure of crystals to ambient conditions; assay type: physicochemical

SMILES	Ki (Rat NEP) [pM]	AUC(0-t) ([1]; IV, analyte = compound dosed (active metabolite)) [ng·h/mL]	AUC(0-t) [2] [ng·h/mL]	pKi at NEP (NEP [3])	Ki (NEP [4]) [pM]	Amount of Compound 1 Excreted in Urine over Collection Period (0-24 hrs) Mean [5] [µg]	Urinary Excretion (approximate % of administred dose excreted in urine) Mean ([5]; 0-24 hrs, 1 mg/kg) [%]	AUC(0-t) ([1]; PO, analyte = compound dosed (prodrug)) [ng·h/mL]	behaviour of crystals at ambient conditions (in words) [6]
C[C@@](CO)(C[C@@H](Cc1ccc(-c2cc(Cl)ccc2F)cc1)NC(=O)C(=O)O)C(=O)O [Comparison Compound C2, (2S,4R)-5-(5′-Chloro-2′-fluorobiphenyl-4-yl)-2-hydroxymethyl-2-methyl-4-(oxalylamino)pentanoic Acid]	316	1970	16000	≥ 9	631	–	–	–	–
CCOC(=O)C(=O)N[C@H](Cc1ccc(-c2cc(Cl)ccc2F)cc1)C[C@@](C)(CO)C(=O)O [Compound 1, (2S,4R)-5-(5′-Chloro-2′-fluorobiphenyl-4-yl)-4-(ethoxyoxalylamino)-2-hydroxymethyl-2-methylpentanoic Acid]	794	–	–	–	794	28.9	0.284	3.7	–
CCOC(=O)C(=O)N[C@H](Cc1ccc(-c2cc(Cl)ccc2F)cc1)C[C@@](C)(CO)C(=O)O [Compound 1″, L-Arginine (2S,4R)-5-(5′-Chloro-2′-fluoro-[1,1′-bipheny]-4-yl)-4-(2-ethoxy-2-oxoacetamido)-2-(hydroxymethyl)-2-methylpentanoate]	–	–	–	–	–	–	–	–	slow deliquescence
